Patent US6407058B1, “Modifying the permeability of physiological barriers” (Eisai Co., Limited, priority 1996, dated 2002)

Tests used:
p100/p120 [1] = assay: p100/p120 electrophoretic mobility, primary pig brain endothelial cells (PBECs); assay type: cell-based; conditions: PBECs, 200 nM PDB, 30 minutes
Method: (§1) Cells were treated with or without 200 nM PDB for 30 minutes, lysed into Laemmli sample buffer, separated by electrophoresis and analysed by immunoblotting with antibodies recognising p100 and p120.
MDCK strain I and II cells were provided by Barry Gumbiner (memorial Sloan-Kettering Cancer Center, NY). LLC-PK1 and Caco-2 cells were obtained from the European Collection of Animal Cell Cultures. All cells were maintained at 37° C. under 5% CO2 in humidified air. MDCK strain I and II cells were maintained in MEM containing 10% FCS, 100 U/ml penicillin, 100 μg/ml streptomycin and 2 mM L-glutamine. Caco-2 cells were maintained in MEM containing 15% FCS, 1% non-essential amino acids and 1 μg/ml bovine insulin (Sigma I-6634). LLC-PK1 cells were grown in M199 (Gibco), 10% FCS, 100 U/ml penicillin, 100 μg/ml streptomycin and 2 mM L-glutamine. For whole cell lysate analysis, 10^5 cells were plated on 6.5 mm diameter, 0.4 μm, polycarbonate Transwell filters from Costar, in 0.25 ml of medium. The basolateral chamber contained 0.75 ml of medium. For immunoprecipitation, 5×10^5 cells were plated onto 24 mm Transwell filters, in 2 ml of medium, with 3 ml of medium in the lower chamber. Cells were used 4-7 days after plating. Tissue culture materials were from Gibco. Porcine brain endothelial cells were isolated and grown by modifications of a previously published procedure (Rubin et al., 1991). Brain capillary fragments were plated on dishes coated with rat tail collagen and human fibronectin. The cultures were fed every other day with growth medium composed of 50% astrocyte-conditioned medium and 50% Dulbecco's Modified Eagle Medium containing 10% plasma-derived serum, 125 μg/ml heparin, antibiotics and glutamine. They were incubated in a humidified atmosphere of 10% CO2 at 37° C. When the endothelial cells were approximately 50% confluent (after 4-6 days in culture), they were trypsinized and plated onto collagen-coated polycarbonate Transwell filters (6.5 mm diameter, 0.4 μm pore size, tissue culture treated, Costar Corp, Cambridge, Mass., U.S.A.) in the same medium (250 μl apically, 750 μl basolaterally). After 2-3 days on filters, the medium was switched to a 1:1 mixture of astrocyte-conditioned medium and a Dulbecco's Modified Eagle Medium-based, chemically defined medium (‘N2’, Rubin et al., 1991; Bottenstein and Sato, 1979). The final concentration of plasma-derived serum was 5%. Human umbilical vein endothelial cells were from Clonetics.
(§2) Whole cell lysates were prepared by rapidly replacing the culture medium in 6.5 mm with hot Laemmli sample buffer, followed by heating at 100° C. for 5 minutes. Immunoprecipitations were carried out at 4° C. Confluent monolayers of cells were washed rapidly with ice cold PBS (containing 0.9 mM CaCl2 and 0.5 mM MgCl2) before addition of 0.5 ml of the appropriate buffer. The filters were then gently scraped, and the lysate was removed and centrifuged at 14000× g. The supernatant was precleared with 10% (w/v) protein A-Sepharose in lysis buffer for 30-60 minutes. Appropriate primary antibodies were added to the lysate, and after 2-3 hours the immunecomplex was isolated, using rabbit anti-mouse secondary antibodies (Jackson Immunoresearch Labs Inc., West Grove, Pa.) and protein A-Sepharose.

p100/p120 [2] = assay: p100/p120 electrophoretic mobility, human umbilical vein endothelial cells (HUVECs); assay type: cell-based; conditions: HUVECs, 200 nM PDB, 30 minutes
Method: as §1
Human umbilical vein endothelial cells were incubated with histamine (His), pyrilamine (Pyr) or cimetidine (Cim) alone or in combination. As indicated, cells were preincubated in the absence or presence of cimetidine (10 μM) or pyrilamine (10 μM) for 10 minutes and then treated with or without histamine (10 μM) for a further 10 minutes. The cells were extracted and protein analysed by gel electrophoresis and immunoblotting. […] In the following examples, increase mobility of p100/p120 means decreased phosphorylation.
as §2, with “A-Sepharose. The beads were washed fives times with lysis buffer, and the bound protein was solubilized in SDS-sample buffer, followed by heating at 100° C. for 5 minutes.” for “A-Sepharose.”
(§3) Cell extracts or immunoprecipitates in SDS sample buffer were resolved by SDS-PAGE. The slab gels were then equilibrated in buffer comprising; 48 mM Tris, 39 mM glycine, 20% methanol and 0.03% SDS. Proteins were transferred to nitrocellulose filters (Hybond ECL; Amersham), which were Ponceau S stained and then blocked for 2 hours at 37° C. with 1% BSA in PBS containing 0.05% Tween-20. Filters were then probed with p120 antibody, at a dilution of 1:2500. After washing, filters were incubated with horseradish peroxidase conjugated anti-mouse antibody (Amersham), at a dilution of 1:5000. The filters were then extensively washed in PBS/0.5% Tween-20, and immunoreactive bands were detected by enhanced chemiluminescence (Amersham) following the manufacturers instructions.

p100/p120 [3] = assay: p100/p120 electrophoretic mobility, Caco-2 cells; assay type: cell-based; conditions: 200 nM PDB, 30 minutes
Method: (§4) p100 and p120 electrophoretic mobility is affected by PDB in a number of different epithelial cell lines. LLC-PK1, (a porcine kidney cell line), MDCK strain II cells and gut-derived Caco-2 cells were treated with or without 200 nM PDB for 30 minutes, lysed into Laemmli sample buffer, separated by electrophoresis and analysed by immunoblotting.
(§5) MDCK strain I and II cells were provided by Barry Gumbiner (memorial Sloan-Kettering Cancer Center, NY). LLC-PK1 and Caco-2 cells were obtained from the European Collection of Animal Cell Cultures. All cells were maintained at 37° C. under 5% CO2 in humidified air. MDCK strain I and II cells were maintained in MEM containing 10% FCS, 100 U/ml penicillin, 100 μg/ml streptomycin and 2 mM L-glutamine. Caco-2 cells were maintained in MEM containing 15% FCS, 1% non-essential amino acids and 1 μg/ml bovine insulin (Sigma I-6634). LLC-PK1 cells were grown in M199 (Gibco), 10% FCS, 100 U/ml penicillin, 100 μg/ml streptomycin and 2 mM L-glutamine. For whole cell lysate analysis, 10^5 cells were plated on 6.5 mm diameter, 0.4 μm, polycarbonate Transwell filters from Costar, in 0.25 ml of medium. The basolateral chamber contained 0.75 ml of medium. For immunoprecipitation, 5×10^5 cells were plated onto 24 mm Transwell filters, in 2 ml of medium, with 3 ml of medium in the lower chamber. Cells were used 4-7 days after plating. […]

p100/p120 [4] = assay: p100/p120 electrophoretic mobility, LLC-PK1 cells; assay type: cell-based, porcine; conditions: 200 nM PDB, 30 minutes
Method: as §4, §5

E-cadherin = E-cadherin electrophoretic mobility by immunoblotting, MDCK I cells; assay type: cell-based; conditions: 200 nM PDB, 30 minutes
Method: The migration of the cellular proteins p100 and p120 during electrophoresis is increased following PDB-treatment of MDCK I cells. PDB (phorbol-12,13-dibutyrate) is a pharmacological activator of protein kinase C. MDCK I cells are a kidney derived epithelial cell line, with particularly well developed junctional complexes. Cells treated for 30 minutes with either 200 nM PDB (+) or vehicle (−) were then lysed into Laemmli sample buffer, and separated by electrophoresis using 6% acrylamide gels. Proteins were transferred to nitrocellulose and probed with antibodies to p100/p120, and then reprobed with E-cadherin and paxillin antibodies.
as §3, with “After washing, filters were incubated with horseradish peroxidase conjugated anti-mouse antibody (Amersham), at a dilution of 1:5000.” left out

For `CCCC(=O)O[C@@H]1[C@@H](C)[C@@]2(O)[C@@H](C=C(CO)C[C@]3(O)C(=O)C(C)=C[C@@H]23)[C@@H]2C(C)(C)[C@]12OC(=O)CCC` [PDB, Phorbol-12,13-dibutyrate], which “mobility of p100 and p120” value (p100/p120 [1]) is on record?
Its value is “the mobility of p100 and p120 increased”.

And the “mobility of p100 and p120” value (p100/p120 [2])?
The value was “the mobility of p100 and p120 increased”.

What about the “migration of p100 and p120” value (p100/p120 [3]) of the same compound?
Its value is “less striking, but still present”.

And the “migration of p100 and p120” value (p100/p120 [4])?
The value was “increased markedly”.

What about the “effect on E-cadherin migration” value (E-cadherin) of the same compound?
Its value is “no effect”.
